In data set [1] the target is T1, GnRHR (Homo sapiens, UniProt P30968).
T1 construct: host or cells: CHO-K1 (CHO-K1/GnRHR/Ga15)
T1 sequence (P30968 1-328): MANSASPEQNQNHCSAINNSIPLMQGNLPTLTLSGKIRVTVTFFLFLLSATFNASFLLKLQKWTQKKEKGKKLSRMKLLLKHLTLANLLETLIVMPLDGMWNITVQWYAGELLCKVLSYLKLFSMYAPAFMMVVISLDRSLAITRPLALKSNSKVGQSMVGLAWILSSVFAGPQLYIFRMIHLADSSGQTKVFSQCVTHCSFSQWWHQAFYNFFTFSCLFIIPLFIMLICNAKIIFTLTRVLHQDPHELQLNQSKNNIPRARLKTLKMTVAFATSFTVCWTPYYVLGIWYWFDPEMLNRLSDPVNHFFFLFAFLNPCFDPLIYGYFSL
The data set can be described thus: Calcium assay in CHO-K1 cells (Genscript), FLIPR. The format is cell-based. The settings on record: CHO-K1/GnRHR/Ga15 cells, relative to agonist control, read-out: GNRHR Stimulation at 1 μM. How it is done:
Test article sample solutions were dissolved in HBSS buffer (with 20 mM HEPES buffer, pH 7.4) to form the 5× working solution. FLIPR® Calcium 4 assay kit from Molecular devices (R8141) was used as required. In brief, CHO-K1 cells expressing GnRHR (CHO-K1/GnRHR/Ga15, Genscript accession NM_000406) were respectively cultured in the 10-cm dishes and maintained at 37° C./5% CO2. CHO-K1 cells expressing GNRHR were respectively seeded in a 384-well black-wall, clear-bottom plate at a density of 15,000 cells per well in 20 μl of growth medium about 18 hours prior to the day of experiment and maintained at 37° C./5% CO2. Then, 20 μl of dye loading solution was added into the wells and the plates were subsequently placed into a 37° C. incubator for 60 minutes, followed by a 15 minutes' incubation at room temperature. At last, 10 μl of compounds or control agonist were added into respective wells of the assay plate during reading in FLIPR. The plate containing 5× compound and control agonist solution was placed in FLIPR. Solutions were added into the cell plate automatically at the 20 seconds and the fluorescence signal was monitored for an additional 100 seconds (21 sec to 120 sec.). Data were recorded by ScreenWorks (version 3.1) as FMD files with FLIPR and stored on the GenScript computer network for off-line analysis. Data acquisition and analyses was performed using ScreenWorks (version 3.1) program and exported to Excel. The average value of the first 20 seconds' reading was calculated as the baseline and the relative fluorescent units (ΔRFU) intensity values were calculated by subtracting the average value of baseline from the maximum fluorescent units (21 s to 120 s).
The % Stimulation was calculated with the following equation: % Stimulation=(ΔRFUCompound−ΔRFUBackground)/(ΔRFUAgonist control−ΔRFUBackground)×100
Dose response curves were fitted with four-parameter-logistic-equation by the software GraphPad Prism 6.
Equation: four parameter logistic equation. Y=Bottom+(Top-Bottom)/(1+10^((Log EC50−X)×Hillslope))
X is the logarithm of concentration. Y is the response.

Data set [2] is described as follows: Stability in aqueous media (PBS pH 7.4). The settings on record: phosphate buffer solution (PBS); PBS pH 7.4, 37° C., samples at T=0, 4, 24, 96 h; read-out: Stability grading (t1/2). Also noted: unit not given here. The format is physicochemical. The text has this:
LC/MS data was collected for compound identity.

Experimental findings from patent US11434258B2, “Compounds (immunorhelins)” (ISR IMMUNE SYSTEM REGULATION HOLDING AB (PUBL), priority 2017, dated 2022) are described below.

SMILES strings stand for the structures. Non-standard residues stand in square brackets, D forms with d. Residues, ends and D or L forms follow the SMILES beside them. *: point of attachment. d2Nal = N[C@H](Cc1ccc2ccccc2c1)C(=O)O; pGlu = O=C1CC[C@@H](C(=O)O)N1; tBu = CC(C)(C)*

`CCNC(=O)[C@@H]1CCCN1C(=O)[C@H](CCCNC(=N)N)NC(=O)[C@H](CC(C)C)NC(=O)[C@@H](COC(C)(C)C)NC(=O)[C@H](Cc1ccc(O)cc1)NC(=O)[C@H](CO)NC(=O)[C@H](Cc1c[nH]c2ccccc12)NC(=O)[C@H](Cc1cnc[nH]1)NC(=O)[C@@H]1CCC(=O)N1` [Buserelin, reference compound]: the activation at 1 µM in data set [1] came out at 94%.

Turning to `CCNC(=O)[C@@H]1CCCN1C(=O)[C@H](CCCNC(=N)N)NC(=O)[C@H](Cc1c[nH]c2ccccc12)NC(=O)[C@@H](COC(C)(C)C)NC(=O)[C@H](Cc1ccc(O)cc1)NC(=O)[C@H](CO)NC(=O)[C@H](Cc1c[nH]c2ccccc12)NC(=O)[C@H](Cc1c[nH]cn1)NC(=O)[C@@H]1CCC(=O)N1` [Compound 8, pGlu-His-Trp-Ser-Tyr-D-Ser(tBu)-Trp-Arg-Pro-NHEt] ([pGlu]HWSY[dS](tBu)WRP-NHEt), in data set [2], the half-life at 0.2 mg/ml is above 96. Besides, the activation at 1 µM in data set [1] worked out at 86%.

For the compound `CCNC(=O)[C@@H]1CCCN1C(=O)[C@H](Cc1ccc(O)cc1)NC(=O)[C@H](Cc1c[nH]c2ccccc12)NC(=O)[C@@H](COC(C)(C)C)NC(=O)[C@H](Cc1ccc(O)cc1)NC(=O)[C@H](CO)NC(=O)[C@H](Cc1c[nH]c2ccccc12)NC(=O)[C@H](Cc1c[nH]cn1)NC(=O)[C@@H]1CCC(=O)N1` [Compound 12, pGlu-His-Trp-Ser-Tyr-D-Ser(tBu)-Trp-Tyr-Pro-NHEt] ([pGlu]HWSY[dS](tBu)WYP-NHEt), the half-life at 0.2 mg/ml in data set [2] is above 96. In data set [1], the activation at 1 µM was found to be 80%.

Consider `CCNC(=O)[C@@H]1CCCN1C(=O)[C@H](Cc1ccc(O)cc1)NC(=O)[C@H](Cc1c[nH]c2ccccc12)NC(=O)[C@@H](COC(C)(C)C)NC(=O)[C@H](Cc1c[nH]cn1)NC(=O)[C@H](CO)NC(=O)[C@H](Cc1c[nH]c2ccccc12)NC(=O)[C@H](Cc1c[nH]cn1)NC(=O)[C@@H]1CCC(=O)N1` [Compound 13, pGlu-His-Trp-Ser-His-D-Ser(tBu)-Trp-Tyr-Pro-NHEt] ([pGlu]HWSH[dS](tBu)WYP-NHEt), for which the half-life at 0.2 mg/ml in data set [2] is above 96. In addition, the activation at 1 µM in data set [1] stood at 87%.

As for `CC(C)C[C@H](NC(=O)[C@@H](Cc1c[nH]c2ccccc12)NC(=O)[C@H](Cc1ccc(O)cc1)NC(=O)[C@H](CO)NC(=O)[C@H](Cc1c[nH]c2ccccc12)NC(=O)[C@H](Cc1c[nH]cn1)NC(=O)[C@@H]1CCC(=O)N1)C(=O)N[C@@H](Cc1ccc(O)cc1)C(=O)N1CCC[C@H]1C(=O)NCC(N)=O` [Compound 14, pGlu-His-Trp-Ser-Tyr-D-Trp-Leu-Tyr-Pro-Gly-amide] ([pGlu]HWSY[dW]LYPG-NH2), in data set [2], the half-life at 0.2 mg/ml is above 96. Moreover, in data set [1], the activation at 1 µM is 78%.

As for `CC(C)C[C@H](NC(=O)[C@@H](Cc1c[nH]c2ccccc12)NC(=O)[C@H](Cc1c[nH]cn1)NC(=O)[C@H](CO)NC(=O)[C@H](Cc1c[nH]c2ccccc12)NC(=O)[C@H](Cc1c[nH]cn1)NC(=O)[C@@H]1CCC(=O)N1)C(=O)N[C@@H](Cc1ccc(O)cc1)C(=O)N1CCC[C@H]1C(=O)NCC(N)=O` [Compound 16, pGlu-His-Trp-Ser-His-D-Trp-Leu-Tyr-Pro-Gly-amide] ([pGlu]HWSH[dW]LYPG-NH2), the half-life at 0.2 mg/ml in data set [2] was above 96. The activation at 1 µM in data set [1] amounted to 76%.

`N=C(N)NCCC[C@H](NC(=O)[C@H](Cc1c[nH]c2ccccc12)NC(=O)[C@@H](Cc1c[nH]c2ccccc12)NC(=O)[C@H](Cc1c[nH]cn1)NC(=O)[C@H](CO)NC(=O)[C@H](Cc1c[nH]c2ccccc12)NC(=O)[C@H](Cc1c[nH]cn1)NC(=O)[C@@H]1CCC(=O)N1)C(=O)N1CCC[C@H]1C(=O)NCC(N)=O` [Compound 20, pGlu-His-Trp-Ser-His-D-Trp-Trp-Arg-Pro-NHEt]: the half-life at 0.2 mg/ml in data set [2] is above 96. Moreover, in data set [1], the activation at 1 µM was found to be 75%.

With `CC(C)C[C@H](NC(=O)[C@@H](Cc1ccc2ccccc2c1)NC(=O)[C@H](Cc1ccc(O)cc1)NC(=O)[C@H](CO)NC(=O)[C@H](Cc1c[nH]c2ccccc12)NC(=O)[C@H](Cc1c[nH]cn1)NC(=O)[C@@H]1CCC(=O)N1)C(=O)N[C@@H](Cc1ccc(O)cc1)C(=O)N1CCC[C@H]1C(=O)NCC(N)=O` [Compound 25, pGlu-His-Trp-Ser-Tyr-D-Nal-Leu-Tyr-Pro-Gly-amide] ([pGlu]HWSY[d2Nal]LYPG-NH2), the half-life at 0.2 mg/ml in data set [2] is below 96. For the same compound, the activation at 1 µM in data set [1] was 82%.

For `CC(C)C[C@H](NC(=O)[C@@H](Cc1ccc2ccccc2c1)NC(=O)[C@H](Cc1c[nH]cn1)NC(=O)[C@H](CO)NC(=O)[C@H](Cc1c[nH]c2ccccc12)NC(=O)[C@H](Cc1c[nH]cn1)NC(=O)[C@@H]1CCC(=O)N1)C(=O)N[C@@H](Cc1ccc(O)cc1)C(=O)N1CCC[C@H]1C(=O)NCC(N)=O` [Compound 28, pGlu-His-Trp-Ser-His-D-Nal-Leu-Tyr-Pro-Gly-amide] ([pGlu]HWSH[d2Nal]LYPG-NH2), in data set [2], the half-life at 0.2 mg/ml was above 96. The activation at 1 µM in data set [1] is 95%.

Consider `NC(=O)CNC(=O)[C@@H]1CCCN1C(=O)[C@H](Cc1ccc(O)cc1)NC(=O)[C@H](Cc1c[nH]c2ccccc12)NC(=O)[C@@H](Cc1ccc2ccccc2c1)NC(=O)[C@H](Cc1c[nH]cn1)NC(=O)[C@H](CO)NC(=O)[C@H](Cc1c[nH]c2ccccc12)NC(=O)[C@H](Cc1c[nH]cn1)NC(=O)[C@@H]1CCC(=O)N1` [Compound 33, pGlu-His-Trp-Ser-His-D-Nal-Trp-Tyr-Pro-Gly-amide] ([pGlu]HWSH[d2Nal]WYPG-NH2), for which the half-life at 0.2 mg/ml in data set [2] is below 96. In data set [1], the activation at 1 µM was determined as 67%.

Take `CCNC(=O)[C@@H]1CCCN1C(=O)[C@H](CCCNC(=N)N)NC(=O)[C@H](Cc1c[nH]c2ccccc12)NC(=O)[C@@H](CC(C)C)NC(=O)[C@H](Cc1ccc(O)cc1)NC(=O)[C@H](CO)NC(=O)[C@H](Cc1c[nH]c2ccccc12)NC(=O)[C@H](Cc1c[nH]cn1)NC(=O)[C@@H]1CCC(=O)N1` [Compound 44, pGlu-His-Trp-Ser-Tyr-D-Leu-Trp-Arg-Pro-NHEt] ([pGlu]HWSY[dL]WRP-NHEt): the half-life at 0.2 mg/ml in data set [2] is above 96. Besides, in data set [1], the activation at 1 µM stood at 111%.

Consider `CC(C)C[C@H](NC(=O)CNC(=O)[C@H](Cc1ccc(O)cc1)NC(=O)[C@H](CO)NC(=O)[C@H](Cc1c[nH]c2ccccc12)NC(=O)[C@H](Cc1cnc[nH]1)NC(=O)[C@@H]1CCC(=O)N1)C(=O)N[C@@H](CCCNC(=N)N)C(=O)N1CCC[C@H]1C(=O)NCC(N)=O` [Gonadorelin, reference compound], for which, in data set [1], the activation at 1 µM stood at 102%.

As to `CC(C)C[C@H](NC(=O)[C@@H](COC(C)(C)C)NC(=O)[C@H](Cc1ccc(O)cc1)NC(=O)[C@H](CO)NC(=O)[C@H](Cc1c[nH]c2ccccc12)NC(=O)[C@H](Cc1cnc[nH]1)NC(=O)[C@@H]1CCC(=O)N1)C(=O)N[C@@H](CCCNC(=N)N)C(=O)N1CCC[C@H]1C(=O)NNC(N)=O` [Goserelin], the activation at 1 µM in data set [1] was 99%.

For the compound `CCNC(=O)[C@@H]1CCCN1C(=O)[C@H](CCCNC(=N)N)NC(=O)[C@H](CC(C)C)NC(=O)[C@@H](CC(C)C)NC(=O)[C@H](Cc1ccc(O)cc1)NC(=O)[C@H](CO)NC(=O)[C@H](Cc1c[nH]c2ccccc12)NC(=O)[C@H](Cc1c[nH]cn1)NC(=O)[C@@H]1CCC(=O)N1` [Leuprorelin, reference compound], the activation at 1 µM in data set [1] worked out at 107%.

In the case of `CC(C)C[C@H](NC(=O)[C@@H](Cc1ccc2ccccc2c1)NC(=O)[C@H](Cc1ccc(O)cc1)NC(=O)[C@H](CO)NC(=O)[C@H](Cc1c[nH]c2ccccc12)NC(=O)[C@H](Cc1c[nH]cn1)NC(=O)[C@@H]1CCC(=O)N1)C(=O)N[C@@H](CCCNC(=N)N)C(=O)N1CCC[C@H]1C(=O)NCC(N)=O` [Nafarelin, reference compound], the activation at 1 µM in data set [1] is 100%.
